Source: PMC3790851, “Improved Mass Spectrometry Assay For Plasma Hepcidin: Detection and Characterization of a Novel Hepcidin Isoform” (PLoS ONE, 2013)

Tests used:
[1] = Effect of solvent of hepcidin-25^+40 on loss of peptide and hepcidin-25 value assignment; assay type: physicochemical
Protocol: Heavy hepcidin-25^+40 (hepcidin-25^+40 Da; DTHF(^13C9,^15N)P(^13C5,^15N)I(^13C6,^15N)CI(^13C6,^15N) F(^13C9,^15N)CCG(^15N)CCHRSKCGMCCKT disulfide bridged) was obtained from Peptides International (Table 1). Note that due to an isotope content of 98% the actual mass is 1 Da less than the theoretical mass of this peptide. Freeze dried hepcidin-25^+40 was dissolved in H2O in accordance with the manual. An 0.1 nmol/L solution of hepcidin-25^+40 was aliquoted in 12 µL volumes in 200 µL polypropylene tubes and stored at −80°C until use.
As quantification of native hepcidin in a sample is related to the known concentration of the spiked internal standard, the absolute levels of measured hepcidin are highly dependent on the value assignment of the used internal standard. One determining factor concerns proper dissolvent of the lyophilized peptide and whether or not a substantial amount of the internal standard is lost by aggregation or sticking to laboratory plastics during its preparation. Therefore, we compared the effects of three different solvents to prepare hepcidin-25^+40 stock solutions on the measured hepcidin-25 concentration of a series of spiked blank serum samples to which known hepcidin-25 concentrations were added. […] This finding implicates that use of 5% phosphoric acid leads to loss of about 50% of the peptide, while this seems to be the case for about 15% of the peptide when water is used. […] Therefore, 20% acetonitrile was implemented as solvent for the internal standard in our standard operating procedure, which was used throughout the remainder of this study.
Figure 1 Effect on the solvent of hepcidin-25^+40 on hepcidin-25 linearity and value assignment. […] Linearity of measured hepcidin-25 was determined by the formulas: Y = 1.822X+0.097 (5% phosphoric acid); Y = 1.119X+0.494 (water); Y = 0.964X+0.069 (20% acn).

[2] = parameters: method as in PMID 22222553; settings: serum, 12 healthy controls; cited from earlier work
[3] = at least; cited from earlier work
Protocol: We conclude that hepcidin-25 results are not changed during 2 years of storage at −80°C, except for a possible small decrease upon freezing. However, after 2 years storage at −80°C, hepcidin results become less precise and individual measurements might become less reliable. Average results for a population may not be affected, but existing differences in hepcidin levels between groups, or correlations of hepcidin with other parameters might be more difficult to assess.

[4] = serum, healthy controls; cited from earlier work
Text: We observed no differences between the various anticoagulants used. We observed, however, a small non significant decrease of hepcidin-25 upon freezing (e.g. for heparin samples at 7 days: total intensive care and control (n = 15): 95% (CV 8%) relative to fresh samples, Table S3). […] However, it should be noted that the reproducibility of the measurements of the smaller isoforms at low concentrations is low, especially the measurements of hepcidin-20 in EDTA plasma samples (Table 2, Table S3). Thus, hepcidin measurements by WCX-TOF MS are no ...

Substance | loss of peptide on dissolution in 5% phosphoric acid ([1]; inferred from false high measured hepcidin-25 in spiked blank serum) | loss of peptide on dissolution in water ([1]; inferred from measured hepcidin-25 in spiked blank serum) | measured to nominal hepcidin-25 ratio, internal standard in 20% acetonitril ([1]; spiked blank serum) | stability at 4°C [2] [days] | stability at -80°C [3] | stability at -20°C [4] [days]
DTHF(^13C9,^15N)P(^13C5,^15N)I(^13C6,^15N)CI(^13C6,^15N) F(^13C9,^15N)CCG(^15N)CCHRSKCGMCCKT disulfide bridged (disulfide) [Hepcidin-25^+40, novel custom made heavy hepcidin-25 isotope, disulfide bridged, internal standard] | about 50% | about 15% | near 1∶1 ratio | – | – | –
hepcidin: hepcidin as measured in plasma or serum, isoform not specified at the place | – | – | – | 6 | 6–8 months | ≥ 42
